PubChem BioAssay (NCI)
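At the GI50, growth is halved. Definition used: TGI = concentration required for complete inhibition of growth.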

What was measured:
Assay in all cases: NCI anticancer screen, dose series, 384-well format
786-0 renal = tested on: 786-0 renal
A498 renal = tested on: A498 renal
A549 NSCLC = tested on: A549 NSCLC
BT-549 breast = tested on: BT-549 breast
CAKI-1 renal = tested on: CAKI-1 renal
COLO 205 colon = tested on: COLO 205 colon
EKVX NSCLC = tested on: EKVX NSCLC
HCC-2998 colon = tested on: HCC-2998 colon
HCT-116 colon = tested on: HCT-116 colon
HCT-15 colon = tested on: HCT-15 colon
HOP-92 NSCLC = tested on: HOP-92 NSCLC
HS 578T breast = tested on: HS 578T breast
IGROV1 ovarian = tested on: IGROV1 ovarian
K-562 leukemia = tested on: K-562 leukemia
KM12 colon = tested on: KM12 colon
LOX IMVI melanoma = tested on: LOX IMVI melanoma
MALME-3M melanoma = tested on: MALME-3M melanoma
MDA-MB-231 breast = tested on: MDA-MB-231 breast
MDA-MB-435 melanoma = tested on: MDA-MB-435 melanoma
NCI-H226 lung = tested on: NCI-H226 lung
NCI-H23 lung = tested on: NCI-H23 lung
NCI-H322M lung = tested on: NCI-H322M lung
NCI-H460 NSCLC = tested on: NCI-H460 NSCLC
NCI-H522 lung = tested on: NCI-H522 lung
NCI/ADR-RES ovarian = tested on: NCI/ADR-RES ovarian
OVCAR-3 ovarian = tested on: OVCAR-3 ovarian
OVCAR-4 ovarian = tested on: OVCAR-4 ovarian
OVCAR-5 ovarian = tested on: OVCAR-5 ovarian
OVCAR-8 ovarian = tested on: OVCAR-8 ovarian
PC-3 prostate = tested on: PC-3 prostate
RPMI-8226 leukemia = tested on: RPMI-8226 leukemia
RXF 393 renal = tested on: RXF 393 renal
SK-MEL-28 melanoma = tested on: SK-MEL-28 melanoma
SK-MEL-5 melanoma = tested on: SK-MEL-5 melanoma
SK-OV-3 ovarian = tested on: SK-OV-3 ovarian
SNB-19 CNS = tested on: SNB-19 CNS
SNB-75 CNS = tested on: SNB-75 CNS
SW-620 colon = tested on: SW-620 colon
T-47D breast = tested on: T-47D breast
TK-10 renal = tested on: TK-10 renal
UACC-257 melanoma = tested on: UACC-257 melanoma
UO-31 renal = tested on: UO-31 renal

`CCc1c2c(nc3ccc(O)cc13)-c1cc3c(c(=O)n1C2)COC(=O)[C@]3(O)CC` showed a TGI (786-0 renal) of 12.5 nM, a TGI (A498 renal) of 129 nM and a GI50 (A549 NSCLC) of 34.4 nM. For the same compound, the TGI (A549 NSCLC) was 1060 nM, the TGI (BT-549 breast) was 26.4 nM and the TGI (CAKI-1 renal) was 92.6 nM. The TGI (COLO 205 colon) was 1060 nM, the GI50 (EKVX NSCLC) was 89.7 nM and the TGI (EKVX NSCLC) was 2630 nM. It also gave a TGI (HCC-2998 colon) of 75.4 nM, a TGI (HCT-116 colon) of 114 nM and a TGI (HCT-15 colon) of 137 nM. It also gave a TGI (HOP-92 NSCLC) of 64.4 nM, a GI50 (HS 578T breast) of 140 nM and a TGI (HS 578T breast) of 1930 nM. It also gave a GI50 (IGROV1 ovarian) of 24.7 nM, a TGI (IGROV1 ovarian) of 1050 nM and a TGI (K-562 leukemia) of 292 nM. It also gave a GI50 (KM12 colon) of 20.5 nM, a TGI (KM12 colon) of 153 nM and a TGI (LOX IMVI melanoma) of 23.8 nM. The GI50 (MALME-3M melanoma) was 13.1 nM, the TGI (MALME-3M melanoma) was 297 nM and the GI50 (MDA-MB-231 breast) was 128 nM. The TGI (MDA-MB-231 breast) was 3800 nM, the GI50 (MDA-MB-435 melanoma) was 33.1 nM and the TGI (MDA-MB-435 melanoma) was 266 nM. It also gave a TGI (NCI-H226 lung) of 135 nM, a TGI (NCI-H23 lung) of 13.3 nM and a GI50 (NCI-H322M lung) of 22.3 nM. For the same compound, the TGI (NCI-H322M lung) was 120 nM, the TGI (NCI-H460 NSCLC) was 15.6 nM and the TGI (NCI-H522 lung) was 31.6 nM. For the same compound, the TGI (NCI/ADR-RES ovarian) was 30.3 nM, the TGI (OVCAR-3 ovarian) was 36.4 nM and the GI50 (OVCAR-4 ovarian) was 47.8 nM. The TGI (OVCAR-4 ovarian) was 224 nM, the GI50 (OVCAR-5 ovarian) was 39.8 nM and the TGI (OVCAR-5 ovarian) was 249 nM. It also gave a TGI (OVCAR-8 ovarian) of 47.8 nM, a GI50 (PC-3 prostate) of 115 nM and a TGI (PC-3 prostate) of 4660 nM. For the same compound, the TGI (RPMI-8226 leukemia) was 61.6 nM, the TGI (RXF 393 renal) was 26.4 nM and the TGI (SK-MEL-28 melanoma) was 156 nM. It also gave a TGI (SK-MEL-5 melanoma) of 16.9 nM, a TGI (SK-OV-3 ovarian) of 17.5 nM and a TGI (SNB-19 CNS) of 16.3 nM. The TGI (SNB-75 CNS) was 14.1 nM, the TGI (SW-620 colon) was 239 nM and the TGI (T-47D breast) was 15.5 nM. The GI50 (TK-10 renal) was 35.1 nM, the TGI (TK-10 renal) was 919 nM and the GI50 (UACC-257 melanoma) was 11.8 nM. For the same compound, the TGI (UACC-257 melanoma) was 285 nM and the TGI (UO-31 renal) was 49.5 nM.
